Measurements: patent US20110230481A2, “DERIVATIVES OF TETRABROMOBENZIMIDAZOLE, A PROCESS FOR THE PREPARATION THEREOF, A PHARMACEUTICAL COMPOSITION COMPRISING THE SAME, A METHOD OF USING THE SAME, A METHOD FOR MODULATING OR REGULATING SERINE/THREONINE KINASES, AND SERINE/THREONINE KINASES MODULATING AGENT” (SELVITA S.A., priority 2009, published 2011)

Assays:
Experiment in all cases: KINOMEscan Max
Format in all cases: binding
MST3 = MST3 (Homo sapiens, UniProt Q9Y6E0); conditions: 1 μM
Summary of the method: (§1)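 Active-site competition binding format, not an activity assay. Tagged kinase retained on immobilized ligand is detected by quantitative PCR of its DNA label.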

NDR1 = NDR1 (Homo sapiens, UniProt Q15208)
Summary of the method: as §1

SRC = target: T1, SRC (Homo sapiens, UniProt P12931)
T1 construct: purchased Ambit Kinomescan (contract screening)
Summary of the method: as §1

CSNK1E = target: T2, CSNK1E (Homo sapiens, UniProt P49674)
T2 construct: DNA tag (qPCR read-out)
Summary of the method: as §1

EPHB1 = target: T3, EPHB1 (Homo sapiens, UniProt P54762)
T3 construct: purchased Ambit (KINOMEscan Max panel service)
T3 sequence (P54762 18-984): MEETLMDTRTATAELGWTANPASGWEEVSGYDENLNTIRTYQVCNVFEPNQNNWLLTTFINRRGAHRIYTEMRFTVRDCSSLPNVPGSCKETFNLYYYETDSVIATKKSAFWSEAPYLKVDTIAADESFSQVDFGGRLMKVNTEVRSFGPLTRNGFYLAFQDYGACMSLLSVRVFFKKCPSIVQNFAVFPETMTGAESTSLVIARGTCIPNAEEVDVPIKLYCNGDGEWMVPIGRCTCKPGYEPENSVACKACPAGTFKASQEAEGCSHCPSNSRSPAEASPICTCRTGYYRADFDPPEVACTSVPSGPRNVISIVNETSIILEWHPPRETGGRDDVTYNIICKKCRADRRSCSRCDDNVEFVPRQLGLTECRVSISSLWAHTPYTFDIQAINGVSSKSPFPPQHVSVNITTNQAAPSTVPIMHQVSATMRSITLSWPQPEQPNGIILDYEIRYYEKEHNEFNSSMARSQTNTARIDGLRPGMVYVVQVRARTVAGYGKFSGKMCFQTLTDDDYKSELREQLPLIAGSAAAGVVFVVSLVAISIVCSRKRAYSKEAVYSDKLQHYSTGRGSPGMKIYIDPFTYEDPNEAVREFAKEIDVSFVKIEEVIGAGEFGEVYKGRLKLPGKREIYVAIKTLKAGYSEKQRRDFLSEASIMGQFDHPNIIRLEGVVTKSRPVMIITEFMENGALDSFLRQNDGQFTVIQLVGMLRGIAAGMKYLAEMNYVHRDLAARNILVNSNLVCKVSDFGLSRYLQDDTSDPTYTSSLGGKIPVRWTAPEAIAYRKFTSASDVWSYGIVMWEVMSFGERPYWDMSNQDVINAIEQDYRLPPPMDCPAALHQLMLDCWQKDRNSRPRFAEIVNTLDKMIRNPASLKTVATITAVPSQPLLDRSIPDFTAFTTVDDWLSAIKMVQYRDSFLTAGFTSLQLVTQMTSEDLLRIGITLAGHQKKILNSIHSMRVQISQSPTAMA
Summary of the method: as §1

PIP5K2B = target: T4, PIP5K2B (Homo sapiens, UniProt P78356)
T4 construct: purchased Ambit Kinomescan (contract screening)
Summary of the method: as §1

BRK = target: T5, BRK (Homo sapiens, UniProt Q13882)
T5 construct: DNA tag (qPCR label); purchased Ambit Kinomescan (contract screening)
Summary of the method: as §1

[1] = target: ABL1(H396P)-phosphorylated (Homo sapiens, UniProt P00519, H396P)
Summary of the method: as §1

[2] = target: ABL1(F317L)-phosphorylated (Homo sapiens, UniProt P00519, F317L)
Summary of the method: as §1

DCAMKL3 = target: T6, DCAMKL3 (Homo sapiens, UniProt Q9C098)
T6 construct: purchased Ambit (KINOMEscan Max panel service)
T6 sequence (Q9C098 whole entry): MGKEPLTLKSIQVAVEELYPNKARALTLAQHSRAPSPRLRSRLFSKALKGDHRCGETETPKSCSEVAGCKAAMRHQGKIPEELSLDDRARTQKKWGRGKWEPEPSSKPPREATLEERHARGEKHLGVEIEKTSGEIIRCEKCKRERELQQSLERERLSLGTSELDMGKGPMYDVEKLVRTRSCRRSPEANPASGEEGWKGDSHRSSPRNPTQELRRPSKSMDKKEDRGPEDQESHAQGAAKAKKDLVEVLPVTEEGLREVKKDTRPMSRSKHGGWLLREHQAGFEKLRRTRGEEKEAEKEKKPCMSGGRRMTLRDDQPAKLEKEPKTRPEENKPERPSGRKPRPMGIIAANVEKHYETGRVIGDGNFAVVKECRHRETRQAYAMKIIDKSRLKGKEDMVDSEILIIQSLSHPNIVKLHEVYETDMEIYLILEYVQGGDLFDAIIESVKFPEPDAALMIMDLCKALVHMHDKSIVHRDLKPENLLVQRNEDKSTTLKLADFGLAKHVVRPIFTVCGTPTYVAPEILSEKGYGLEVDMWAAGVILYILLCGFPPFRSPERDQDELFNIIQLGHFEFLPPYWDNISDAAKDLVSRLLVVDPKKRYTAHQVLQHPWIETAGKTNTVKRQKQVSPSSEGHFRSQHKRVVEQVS
Summary of the method: as §1

MAPKAPK2 = target: T7, MAPKAPK2 (Homo sapiens, UniProt P49137)
T7 construct: purchased Ambit Kinomescan (contract panel)
T7 sequence (P49137 whole entry): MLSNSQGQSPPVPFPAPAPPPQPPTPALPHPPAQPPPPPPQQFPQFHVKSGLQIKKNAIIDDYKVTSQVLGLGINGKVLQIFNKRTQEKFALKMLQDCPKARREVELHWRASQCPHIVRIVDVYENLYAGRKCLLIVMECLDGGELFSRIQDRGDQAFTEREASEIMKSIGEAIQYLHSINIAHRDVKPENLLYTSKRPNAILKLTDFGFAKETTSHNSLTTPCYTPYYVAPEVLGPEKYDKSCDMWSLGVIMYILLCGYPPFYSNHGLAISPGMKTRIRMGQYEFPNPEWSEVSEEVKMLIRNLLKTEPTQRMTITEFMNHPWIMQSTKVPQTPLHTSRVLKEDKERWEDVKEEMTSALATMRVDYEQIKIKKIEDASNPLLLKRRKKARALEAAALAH
Summary of the method: as §1

MLCK = MLCK (Homo sapiens, UniProt Q32MK0)
Summary of the method: as §1

FER = target: T8, FER (Homo sapiens, UniProt P16591)
T8 construct: purchased Ambit Kinomescan (contract panel, KINOMEscan Max)
Summary of the method: as §1

PRKCD = target: T9, PRKCD (Homo sapiens, UniProt Q05655)
T9 construct: DNA tag (qPCR read-out)
T9 sequence (Q05655 whole entry): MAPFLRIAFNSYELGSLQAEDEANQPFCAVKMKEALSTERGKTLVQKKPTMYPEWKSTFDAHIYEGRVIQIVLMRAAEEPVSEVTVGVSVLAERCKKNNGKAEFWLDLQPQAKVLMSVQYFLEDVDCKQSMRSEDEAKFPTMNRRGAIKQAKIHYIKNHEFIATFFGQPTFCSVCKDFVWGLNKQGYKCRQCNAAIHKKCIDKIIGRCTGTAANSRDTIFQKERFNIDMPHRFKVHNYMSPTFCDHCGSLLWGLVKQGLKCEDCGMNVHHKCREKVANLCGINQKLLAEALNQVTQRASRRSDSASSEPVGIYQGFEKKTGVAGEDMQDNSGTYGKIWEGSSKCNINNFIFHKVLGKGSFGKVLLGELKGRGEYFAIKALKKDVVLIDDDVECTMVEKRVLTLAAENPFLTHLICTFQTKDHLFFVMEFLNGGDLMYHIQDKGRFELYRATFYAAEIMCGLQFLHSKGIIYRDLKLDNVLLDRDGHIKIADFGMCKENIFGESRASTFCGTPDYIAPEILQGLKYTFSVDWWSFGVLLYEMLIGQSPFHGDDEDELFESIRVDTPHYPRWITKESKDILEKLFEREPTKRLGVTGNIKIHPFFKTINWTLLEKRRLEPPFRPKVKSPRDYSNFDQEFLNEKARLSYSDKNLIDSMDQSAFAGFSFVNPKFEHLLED
Summary of the method: as §1

AURKA = AURKA (Homo sapiens, UniProt O14965)
Chain of AURKA (O14965 whole entry): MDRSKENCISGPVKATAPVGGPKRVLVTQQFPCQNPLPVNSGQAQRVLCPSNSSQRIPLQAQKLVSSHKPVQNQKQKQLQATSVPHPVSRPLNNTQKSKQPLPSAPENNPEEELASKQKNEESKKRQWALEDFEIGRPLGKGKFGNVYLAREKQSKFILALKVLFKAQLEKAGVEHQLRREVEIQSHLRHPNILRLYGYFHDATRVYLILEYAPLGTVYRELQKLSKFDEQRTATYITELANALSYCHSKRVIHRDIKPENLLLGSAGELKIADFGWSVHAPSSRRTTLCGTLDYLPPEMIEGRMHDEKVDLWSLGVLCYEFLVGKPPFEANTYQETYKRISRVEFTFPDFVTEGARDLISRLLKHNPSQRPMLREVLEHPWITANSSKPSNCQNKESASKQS
Summary of the method: as §1

ASK1 = target: T10, ASK1 (Homo sapiens, UniProt Q99683)
T10 construct: DNA tag (qPCR label); purchased Ambit Kinomescan (contract screening)
Summary of the method: as §1

PAK1 = target: T11, PAK1 (Homo sapiens, UniProt Q13153)
T11 construct: DNA tag (qPCR read-out)
Summary of the method: as §1

TEC = target: T12, TEC (Homo sapiens, UniProt P42680)
T12 construct: purchased Ambit Kinomescan (contract screening service)
Summary of the method: as §1

[3] = target: T13, RSK1(Kin.Dom.2-C-terminal) (Homo sapiens, UniProt Q15418)
T13 construct: RSK1(Kin.Dom.2-C-terminal); purchased Ambit Kinomescan (contract screening)
T13 sequence (Q15418 418-675 limits assumed): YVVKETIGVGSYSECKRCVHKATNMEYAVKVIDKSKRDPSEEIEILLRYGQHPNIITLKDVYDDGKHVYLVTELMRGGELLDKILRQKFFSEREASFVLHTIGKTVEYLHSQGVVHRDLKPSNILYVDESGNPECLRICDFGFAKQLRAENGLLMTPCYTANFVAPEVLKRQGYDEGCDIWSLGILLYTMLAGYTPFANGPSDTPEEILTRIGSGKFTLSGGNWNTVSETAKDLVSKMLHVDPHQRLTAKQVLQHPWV
Summary of the method: as §1

WEE2 = target: T14, WEE2 (Homo sapiens, UniProt P0C1S8)
T14 construct: purchased Ambit Kinomescan (contract screening service)
Summary of the method: as §1

TYRO3 = target: T15, TYRO3 (Homo sapiens, UniProt Q06418)
T15 construct: purchased Ambit Kinomescan (contract screening service)
Summary of the method: as §1

p38-delta = p38-delta (Homo sapiens, UniProt O15264)
Chain of p38-delta (O15264 whole entry): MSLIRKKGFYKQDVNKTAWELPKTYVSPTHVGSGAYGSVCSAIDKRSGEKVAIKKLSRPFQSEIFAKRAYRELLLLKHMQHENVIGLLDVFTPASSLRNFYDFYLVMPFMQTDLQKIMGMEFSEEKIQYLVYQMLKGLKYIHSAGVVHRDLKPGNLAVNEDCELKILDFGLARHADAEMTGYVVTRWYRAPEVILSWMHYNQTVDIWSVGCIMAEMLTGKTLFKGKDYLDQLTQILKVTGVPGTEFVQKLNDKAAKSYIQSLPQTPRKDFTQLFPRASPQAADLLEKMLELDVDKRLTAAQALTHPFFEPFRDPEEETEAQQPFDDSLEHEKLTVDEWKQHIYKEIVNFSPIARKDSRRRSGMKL
Summary of the method: as §1

VRK2 = VRK2 (Homo sapiens, UniProt Q86Y07)
Chain of VRK2 (Q86Y07 whole entry): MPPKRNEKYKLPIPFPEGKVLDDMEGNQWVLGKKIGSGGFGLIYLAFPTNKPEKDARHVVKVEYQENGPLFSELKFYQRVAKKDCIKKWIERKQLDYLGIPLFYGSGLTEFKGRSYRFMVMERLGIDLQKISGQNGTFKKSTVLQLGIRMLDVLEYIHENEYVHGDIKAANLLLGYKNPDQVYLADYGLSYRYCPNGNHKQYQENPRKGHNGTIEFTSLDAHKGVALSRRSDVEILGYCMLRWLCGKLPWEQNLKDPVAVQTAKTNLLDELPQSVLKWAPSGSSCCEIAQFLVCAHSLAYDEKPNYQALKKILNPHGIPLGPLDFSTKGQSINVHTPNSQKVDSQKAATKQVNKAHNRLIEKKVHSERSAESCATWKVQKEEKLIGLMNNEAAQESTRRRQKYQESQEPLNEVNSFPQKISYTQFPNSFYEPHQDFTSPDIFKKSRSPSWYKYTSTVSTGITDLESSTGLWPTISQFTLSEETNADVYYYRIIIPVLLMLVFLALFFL
Summary of the method: as §1

HIPK3 = target: T16, HIPK3 (Homo sapiens, UniProt Q9H422)
T16 construct: DNA tag (qPCR read-out); purchased Ambit Kinomescan
Summary of the method: as §1

ERK8 = ERK8 (Homo sapiens, UniProt Q8TD08)
Summary of the method: as §1

EPHA2 = EPHA2 (Homo sapiens, UniProt P29317)
Summary of the method: as §1

RIOK3 = target: T17, RIOK3 (Homo sapiens, UniProt O14730)
T17 construct: DNA tag (qPCR read-out)
Summary of the method: as §1

YANK2 = target: T18, YANK2 (Homo sapiens, UniProt Q9NY57)
T18 construct: purchased Ambit Kinomescan (contract screening service)
T18 sequence (Q9NY57 whole entry): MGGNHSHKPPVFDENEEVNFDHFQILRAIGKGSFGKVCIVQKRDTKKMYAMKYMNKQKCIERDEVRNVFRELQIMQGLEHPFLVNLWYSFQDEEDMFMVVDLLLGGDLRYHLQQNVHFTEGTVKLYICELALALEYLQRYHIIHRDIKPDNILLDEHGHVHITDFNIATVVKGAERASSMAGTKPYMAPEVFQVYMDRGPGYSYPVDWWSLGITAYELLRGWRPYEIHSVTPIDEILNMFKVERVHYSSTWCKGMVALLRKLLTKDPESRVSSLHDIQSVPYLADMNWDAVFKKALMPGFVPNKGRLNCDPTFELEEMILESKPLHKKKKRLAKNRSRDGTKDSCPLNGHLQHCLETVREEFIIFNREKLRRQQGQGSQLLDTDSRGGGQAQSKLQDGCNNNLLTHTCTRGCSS
Summary of the method: as §1

[4] = target: T19, RSK4(Kin.Dom.2-C-terminal) (Homo sapiens, UniProt Q9UK32); conditions: 1 μM
T19 construct: RSK4(Kin.Dom.2-C-terminal); DNA tag (qPCR read-out)
T19 sequence (Q9UK32 426-683 limits assumed): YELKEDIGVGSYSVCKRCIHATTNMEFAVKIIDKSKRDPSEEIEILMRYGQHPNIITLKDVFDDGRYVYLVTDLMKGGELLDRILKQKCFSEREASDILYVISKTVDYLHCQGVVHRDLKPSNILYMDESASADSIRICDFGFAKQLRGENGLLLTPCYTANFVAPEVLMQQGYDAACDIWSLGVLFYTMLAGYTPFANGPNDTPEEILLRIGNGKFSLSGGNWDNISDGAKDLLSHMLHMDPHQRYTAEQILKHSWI
Summary of the method: as §1

ERBB4 = target: T20, ERBB4 (Homo sapiens, UniProt Q15303)
T20 construct: purchased Ambit Kinomescan (contract panel, KINOMEscan Max)
Summary of the method: as §1

MLK1 = MLK1 (Homo sapiens, UniProt P80192)
Summary of the method: as §1

PRKR = PRKR (Homo sapiens, UniProt P19525); conditions: 1 μM
Summary of the method: as §1

[5] = target: ABL1(Q252H)-phosphorylated (Homo sapiens, UniProt P00519, Q252H)
Summary of the method: as §1

TRKA = target: T21, TRKA (Homo sapiens, UniProt P04629)
T21 construct: purchased Ambit Kinomescan (contract screening service)
Summary of the method: as §1

For `NCCCNc1nc2c(Br)c(Br)c(Br)c(Br)c2[nH]1` [Compound 11, N-(3-aminopropyl)-4,5,6,7-tetrabromo-1H-benzo[d]imidazol-2-amine], which “% binding” value (MST3) is on record?
The value was 98%.

And the remaining binding at 1 µM (NDR1)?
Its remaining binding at 1 µM is 100%.

What about the remaining binding at 1 µM (SRC) of the same compound?
The remaining binding at 1 µM was 97%.

What about the remaining binding at 1 µM (CSNK1E) of the same compound?
The remaining binding at 1 µM was 34%.

What about the remaining binding at 1 µM (EPHB1) of the same compound?
Its remaining binding at 1 µM is 100%.

What about the remaining binding at 1 µM (PIP5K2B) of the same compound?
Its remaining binding at 1 µM is 97%.

And the remaining binding at 1 µM (BRK)?
The remaining binding at 1 µM was 100%.

And the remaining binding at 1 µM [1]?
The remaining binding at 1 µM was 100%.

And the remaining binding at 1 µM [2]?
Its remaining binding at 1 µM is 100%.

And the remaining binding at 1 µM (DCAMKL3)?
Its remaining binding at 1 µM is 100%.

What about the remaining binding at 1 µM (MAPKAPK2) of the same compound?
The remaining binding at 1 µM was 100%.

And the remaining binding at 1 µM (MLCK)?
Its remaining binding at 1 µM is 92%.

What about the remaining binding at 1 µM (FER) of the same compound?
Its remaining binding at 1 µM is 100%.

What about the remaining binding at 1 µM (PRKCD) of the same compound?
The remaining binding at 1 µM was 56%.

And the remaining binding at 1 µM (AURKA)?
Its remaining binding at 1 µM is 96%.

What about the remaining binding at 1 µM (ASK1) of the same compound?
Its remaining binding at 1 µM is 100%.

And the remaining binding at 1 µM (PAK1)?
Its remaining binding at 1 µM is 91%.

And the remaining binding at 1 µM (TEC)?
The remaining binding at 1 µM was 100%.

What about the remaining binding at 1 µM [3] of the same compound?
The remaining binding at 1 µM was 96%.

And the remaining binding at 1 µM (WEE2)?
Its remaining binding at 1 µM is 100%.

What about the remaining binding at 1 µM (TYRO3) of the same compound?
Its remaining binding at 1 µM is 100%.

What about the remaining binding at 1 µM (p38-delta) of the same compound?
The remaining binding at 1 µM was 100%.

What about the remaining binding at 1 µM (VRK2) of the same compound?
Its remaining binding at 1 µM is 79%.

What about the remaining binding at 1 µM (HIPK3) of the same compound?
The remaining binding at 1 µM was 1.5%.

And the remaining binding at 1 µM (ERK8)?
The remaining binding at 1 µM was 72%.

And the remaining binding at 1 µM (EPHA2)?
Its remaining binding at 1 µM is 92%.

And the remaining binding at 1 µM (RIOK3)?
Its remaining binding at 1 µM is 52%.

And the remaining binding at 1 µM (YANK2)?
The remaining binding at 1 µM was 100%.

What about the “% binding” value [4] of the same compound?
Its value is 100%.

And the remaining binding at 1 µM (ERBB4)?
Its remaining binding at 1 µM is 100%.

What about the remaining binding at 1 µM (MLK1) of the same compound?
Its remaining binding at 1 µM is 100%.

And the “% binding” value (PRKR)?
Its value is 91%.

What about the remaining binding at 1 µM [5] of the same compound?
The remaining binding at 1 µM was 100%.

What about the remaining binding at 1 µM (TRKA) of the same compound?
The remaining binding at 1 µM was 100%.
